One assay deals with Pim3 kinase (Homo sapiens (Human), UniProt Q86V86). The note with it: read-out: Pim3 IC50.
The target of another assay is Pim1 kinase (Homo sapiens (Human), UniProt P11309). The note with it: read-out: Pim1 IC50.
Chain of Pim1 kinase (P11309 whole entry): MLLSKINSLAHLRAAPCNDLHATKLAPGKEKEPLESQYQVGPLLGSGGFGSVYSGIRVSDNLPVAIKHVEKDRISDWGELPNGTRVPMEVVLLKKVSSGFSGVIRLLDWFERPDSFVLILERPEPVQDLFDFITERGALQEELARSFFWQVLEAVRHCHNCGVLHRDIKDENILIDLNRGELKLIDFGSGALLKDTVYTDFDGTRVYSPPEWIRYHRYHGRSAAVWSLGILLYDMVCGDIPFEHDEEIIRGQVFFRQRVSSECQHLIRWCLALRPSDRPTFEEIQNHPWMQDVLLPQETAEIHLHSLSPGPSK

By IC50 is commonly meant the concentration that inhibits the measured activity by half. For the compound `C[C@@H]1C[C@H](N)C[C@H](c2ccncc2NC(=O)c2nc(-c3ccc(O)cc3F)ccc2F)C1` [Example 39, N-(4-((1R,3S,5S)-3-amino-5-methylcyclohexyl)pyridin-3-yl)-3-fluoro-6-(2-fluoro-4-hydroxyphenyl)picolinamide], the IC50 on Pim3 kinase is 12 nM; at Pim1 kinase, 7 nM.
Taken in the same sequence, the figures for `C[C@@H]1C[C@H](N)C[C@H](c2ccncc2NC(=O)c2nc(-c3cc(O)ccc3F)ccc2F)C1` [Example 43, N-(4-((1R,3S,5S)-3-amino-5-methylcyclohexyl)pyridin-3-yl)-3-fluoro-6-(2-fluoro-5-hydroxyphenyl)picolinamide] were 2 nM and 1 nM.
For `COc1ccc(F)c(-c2nc(C(=O)Nc3cnccc3[C@H]3C[C@@H](N)[C@H](O)[C@@H](C)C3)ccc2F)c1F` [Example 47, N-(4-((1R,3R,4R,5S)-3-amino-4-hydroxy-5-methylcyclohexyl)pyridin-3-yl)-6-(2,6-difluoro-3-methoxyphenyl)-5-fluoropicolinamide] the same measures were 3 nM and 1 nM.
With `CC1(C)C[C@H](N)C[C@H](c2ccncc2NC(=O)c2ccc(F)c(-c3c(F)cccc3F)n2)C1` [Example 49, N-(4-((1R,5R)-5-amino-3,3-dimethylcyclohexyl)pyridin-3-yl)-6-(2,6-difluorophenyl)-5-fluoropicolinamide], the results for the half-maximal inhibitory concentration (IC50) on Pim3 kinase and at Pim1 kinase were 2 nM and 1 nM, respectively.
For the compound `C[C@@H]1C[C@H](N)C[C@H](c2ccncc2NC(=O)c2nc(-c3c(F)cccc3F)c(F)cc2N)C1` [Example 51, 3-amino-N-(4-((1R,3S,5S)-3-amino-5-methylcyclohexyl)pyridin-3-yl)-6-(2,6-difluorophenyl)-5-fluoropicolinamide], the half-maximal inhibitory concentration (IC50) at Pim3 kinase and at Pim1 kinase was 1 nM in each case.
In the case of `N[C@H]1CCC[C@@H](c2ccncc2NC(=O)c2ccc(F)c([C@H]3CC[C@@H](O)CC3)n2)C1` [Example 53, N-(4-((1R,3S)-3-aminocyclohexyl)pyridin-3-yl)-5-fluoro-6-((1s,4s)-4-hydroxycyclohexyl)picolinamide], the IC50 on Pim3 kinase turned out to be 65 nM; at Pim1 kinase, 10 nM.
For `N[C@H]1CCC[C@@H](c2ccncc2NC(=O)c2ccc(F)c([C@H]3CC[C@H](O)CC3)n2)C1` [Example 56, N-(4-((1R,3S)-3-aminocyclohexyl)pyridin-3-yl)-5-fluoro-6-((1r,4r)-4-hydroxycyclohexyl)picolinamide] the same measures were 102 nM and 11 nM.
For `C[C@@H]1C[C@H](N)C[C@H](c2ccncc2NC(=O)c2ccc(F)c(-c3cc(F)ccc3F)n2)C1` [Example 61, N-(4-((1R,3S,5S)-3-amino-5-methylcyclohexyl)pyridin-3-yl)-6-(2,5-difluorophenyl)-5-fluoropicolinamide], the IC50 on Pim3 kinase came out at 4 nM; at Pim1 kinase, 1 nM.
As for `C[C@@H]1C[C@H](N)C[C@H](c2ccncc2NC(=O)c2cccc(-c3ccccc3F)n2)C1` [Example 62, N-(4-((1R,3S,5S)-3-amino-5-methylcyclohexyl)pyridin-3-yl)-6-(2-fluorophenyl)picolinamide], the IC50 on Pim3 kinase worked out at 3 nM; on Pim1 kinase, 1 nM.
Turning to `C[C@@H]1C[C@H](N)C[C@H](c2ccncc2NC(=O)c2cccc(-c3c(F)cccc3F)n2)C1` [Example 63, N-(4-((1R,3S,5S)-3-amino-5-methylcyclohexyl)pyridin-3-yl)-6-(2,6-difluorophenyl)picolinamide], the IC50 was determined as 2 nM on Pim3 kinase and 1 nM at Pim1 kinase.
Taken in the same sequence, the figures for `CCCOc1ccc(F)c(-c2nc(C(=O)Nc3cnccc3[C@@H]3CC[C@H](O)[C@H](N)C3)ccc2F)c1` [Example 64, N-(4-((1R,3R,4S)-3-amino-4-hydroxycyclohexyl)pyridin-3-yl)-5-fluoro-6-(2-fluoro-5-propoxyphenyl)picolinamide] were 5 nM and 2 nM.
For `CCCOc1ccc(F)c(-c2nc(C(=O)Nc3cnccc3[C@@H]3CC[C@H](O)[C@H](N)C3)c(N)cc2F)c1` [Example 67, 3-amino-N-(4-((1R,3R,4S)-3-amino-4-hydroxycyclohexyl)pyridin-3-yl)-5-fluoro-6-(2-fluoro-5-propoxyphenyl)picolinamide] the same measures were 3 nM and 1 nM.
As for `Cc1ccc(F)c(-c2cccc(C(=O)Nc3cnccc3[C@H]3C[C@@H](N)[C@@H](O)[C@@H](C)C3)n2)c1` [Example 74, N-(4-((1R,3R,4S,5S)-3-amino-4-hydroxy-5-methylcyclohexyl)pyridin-3-yl)-6-(2-fluoro-5-methylphenyl)picolinamide], the figures for the concentration for half-maximal inhibition (IC50) on Pim3 kinase and on Pim1 kinase were 4 nM and 1 nM, respectively.
Take `C[C@H]1C[C@@H](c2ccncc2NC(=O)c2cccc(-c3c(F)cccc3F)n2)C[C@@H](N)[C@H]1O` [Example 76, N-(4-((1R,3R,4S,5S)-3-amino-4-hydroxy-5-methylcyclohexyl)pyridin-3-yl)-6-(2,6-difluorophenyl)picolinamide]: the IC50 is 2 nM on Pim3 kinase and 1 nM on Pim1 kinase.
Taken in the same sequence, the figures for `N[C@H]1CCC[C@@H](c2ccncc2NC(=O)c2ccc(F)c(-c3cccc(F)c3F)n2)C1` [Example 79, N-(4-((1R,3S)-3-aminocyclohexyl)pyridin-3-yl)-6-(2,3-difluorophenyl)-5-fluoropicolinamide] were 3 nM and 2 nM.
For `N[C@H]1CCC[C@@H](c2ccncc2NC(=O)c2nc(-c3c(F)cccc3F)ccc2F)C1` [Example 80, N-(4-((1R,3S)-3-aminocyclohexyl)pyridin-3-yl)-6-(2,6-difluorophenyl)-3-fluoropicolinamide], the concentration for half-maximal inhibition (IC50) at Pim3 kinase was determined as 7 nM; at Pim1 kinase, 6 nM.
As to `N[C@H]1CCC[C@@H](c2ccncc2NC(=O)c2ccc(F)c(-c3ccc(F)cc3F)n2)C1` [Example 82, N-(4-((1R,3S)-3-aminocyclohexyl)pyridin-3-yl)-6-(2,4-difluorophenyl)-5-fluoropicolinamide], the figures for the 50% inhibitory concentration (IC50) on Pim3 kinase and on Pim1 kinase were 9 nM and 3 nM, respectively.
Taken in the same sequence, the figures for `N[C@@H]1C[C@H](c2ccncc2NC(=O)c2cccc(-c3ccccc3F)n2)CC[C@@H]1O` [Example 83, N-(4-((1R,3R,4S)-3-amino-4-hydroxycyclohexyl)pyridin-3-yl)-6-(2-fluorophenyl)picolinamide] were 5 nM and 4 nM.
In the case of `Nc1ccc(-c2c(F)cccc2F)nc1C(=O)Nc1cnccc1C1=CC(N)C(O)CC1` (stereo not drawn) [Example 92, 3-amino-N-(4-(trans)-3-amino-4-hydroxycyclohex-1-enyl)pyridin-3-yl)-6-(2,6-difluorophenyl)picolinamide], the IC50 is 5 nM at Pim3 kinase and 2 nM at Pim1 kinase.
Taken in the same sequence, the figures for `Nc1ccc(-c2c(F)cccc2F)nc1C(=O)Nc1cnccc1C1=C[C@@H](N)[C@@H](O)CC1` [Example 93] were 5 nM and 1 nM.
Taken in the same sequence, the figures for `C[C@@H]1CN(c2ccncc2NC(=O)c2nc(-c3c(F)cccc3F)ccc2N)C[C@@H](N)[C@H]1O` [Example 103, 3-amino-N-(4-((3R,4S,5R)-3-amino-4-hydroxy-5-methylpiperidin-1-yl)pyridin-3-yl)-6-(2,6-difluorophenyl)picolinamide] were 4 nM and 2 nM.
For `Cc1ccc(F)c(-c2cccc(C(=O)Nc3cnccc3[C@H]3C[C@@H](N)C[C@@H](C(F)(F)F)C3)n2)c1` [Example 108, N-(4-((1R,3R,5S)-3-amino-5-(trifluoromethyl)cyclohexyl)pyridin-3-yl)-6-(2-fluoro-5-methylphenyl)picolinamide] the same measures were 3 nM and 1 nM.
`N[C@@H]1C[C@H](c2ccncc2NC(=O)c2ccc(F)c(C3CCCCC3)n2)C[C@H](C(F)(F)F)C1` [Example 111, N-(4-((1R,3R,5S)-3-amino-5-(trifluoromethyl)cyclohexyl)pyridin-3-yl)-6-cyclohexyl-5-fluoropicolinamide]: the results for the IC50 at Pim3 kinase and at Pim1 kinase were 11 nM and 2 nM, respectively.
Regarding `C[C@H]1CN(c2ccncc2NC(=O)c2ccc(F)c(-c3ccccc3F)n2)C[C@@H](O)[C@@H]1O` [Example 114, N-(4-((3R,4R,5S)-3,4-dihydroxy-5-methylpiperidin-1-yl)pyridin-3-yl)-5-fluoro-6-(2-fluorophenyl)picolinamide], the IC50 at Pim3 kinase and on Pim1 kinase was 1 nM throughout.
For `C[C@H]1CN(c2ccncc2NC(=O)c2cccc(-c3c(F)cccc3F)n2)C[C@@H](O)[C@@H]1O` [Example 115, 6-(2,6-difluorophenyl)-N-(4-((3R,4R,5S)-3,4-dihydroxy-5-methylpiperidin-1-yl)pyridin-3-yl)picolinamide], the IC50 on Pim3 kinase and on Pim1 kinase was 1 nM in each case.
For the compound `C[C@H]1CN(c2ccncc2NC(=O)c2ccc(F)c(-c3cccnc3)n2)C[C@@H](N)[C@@H]1O` [Example 118, N-(4-((3R,4R,5S)-3-amino-4-hydroxy-5-methylpiperidin-1-yl)pyridin-3-yl)-3-fluoro-2,3′-bipyridine-6-carboxamide], the values for the half-maximal inhibitory concentration (IC50) at Pim3 kinase and at Pim1 kinase were 9 nM and 4 nM, respectively.
For `C[C@H]1CN(c2ccncc2NC(=O)c2ccc(F)c(-c3ccncc3F)n2)C[C@@H](N)[C@@H]1O` [Example 119, N-(4-((3R,4R,5S)-3-amino-4-hydroxy-5-methylpiperidin-1-yl)pyridin-3-yl)-3,3′-difluoro-2,4′-bipyridine-6-carboxamide], the half-inhibitory concentration (IC50) on Pim3 kinase is 2 nM; on Pim1 kinase, 1 nM.
For `C[C@H]1CN(c2ccncc2NC(=O)c2ccc(F)c(-c3ccncc3)n2)C[C@@H](N)[C@@H]1O` [Example 120, N-(4-((3R,4R,5S)-3-amino-4-hydroxy-5-methylpiperidin-1-yl)pyridin-3-yl)-3-fluoro-2,4′-bipyridine-6-carboxamide] the same measures were 7 nM and 3 nM.
As to `COc1cc(F)c(-c2nc(C(=O)Nc3cnccc3[C@H]3C[C@@H](N)CC(C)(C)C3)ccc2F)c(F)c1` [Example 123, N-(4-((1R,5R)-5-amino-3,3-dimethylcyclohexyl)pyridin-3-yl)-6-(2,6-difluoro-4-methoxyphenyl)-5-fluoropicolinamide], the half-inhibitory concentration (IC50) at Pim3 kinase is 2 nM; at Pim1 kinase, 1 nM.

The values above are taken from patent US8592455B2 (priority 2008, dated 2013).
